Data reported in article PMC10482691, “LTP induction by structural rather than enzymatic functions of CaMKII” (Nature, 2023).

Biological target: CaMKIIα F89G (Homo sapiens, UniProt Q9UQM7, F89G)
Assay: In vitro kinase reactions with CaMKII F89G ± NM-PP1 (pT286, pS831)
Format: biochemical
Details: 10 µM NM-PP1
Experimental: Fig. 4 The CaMKII mutation F89G impairs ATP binding but binds the ATP-competitive inhibitor NM-PP1 that restores GluN2B binding and LTP-induced synaptic translocation. Data are presented as mean values ± s.e.m. a, Schematic of the pharmacogenetic method of ATP-competitive CaMKII inhibition; enlargement of the CaMKII ATP-binding pocket by the F89G mutation allows for selective binding of the ATP-competitive inhibitor NM-PP1. b, Immunoblots of in vitro kinase reactions at 30 °C including GFP–CaMKII WT, K42M and F89G with GST–GluA1-c tail. […] Correlation indices were measured before and after Ionomycin-induced colocalization of GFP–CaMKII (WT, K42M and F89G) with mCherry-2BC, represented as change in the correlation index (vehicle: n = 22, 17, 12 cells; NM-PP1: n = 20, 24, 13 cells; one-way ANOVA, Tukey’s multiple comparisons test). […] CaMKII synaptic enrichment was measured before and after cLTP (n = 13, 14, 14 cells; RM two-way ANOVA with Šídák’s multiple comparisons test). […] CaMKII synaptic enrichment was measured before and after cLTP (n = 7, 6, 7 cells; RM two-way ANOVA with Šídák’s multiple comparisons test). […]
CaMKII-mediated phosphorylation of GluA1 S831 or GluN2B S1303 was measured by in vitro kinase reaction with a purified GST–GluA1 C-terminal tail or GST-GluN2B C-terminal tail. […]

In the case of `CC(C)(C)n1nc(Cc2cccc3ccccc23)c2c(N)ncnc21` [NM-PP1], the “effect on residual activity of CaMKII F89G” value is reported as “further reduced”.
